Test results reported in patent US20230406838A1, “MUTANT SELECTIVE EGFR INHIBITORS AND METHODS OF USE THEREOF” (Dana-Farber Cancer Institute, Inc., priority 2020, published 2023).

Experiments:
[1] = biological target: EGFR L858R (Homo sapiens, UniProt P00533, L858R); assay: HTRF-based EGFR biochemical assay, L858R; conditions: 100 μM ATP, enzyme 0.1 nM
Experimental: (§1) EGFR biochemical activity measurements were carried out using the homogeneous time-resolved fluorescence (HTRF) assay (Cisbio). Inhibitors and DMSO normalizations were first dispensed to empty black low-volume 384-well plates (Corning) with D300 digital liquid dispenser (HP). All reactions were carried out at room temperature and solutions were added to plates with a Multidrop Combi Reagent Dispenser (ThermoFisher). The reaction mixture (10 μL final volume) contained 1 μM tyrosine kinase peptide-biotin substrate and mutant EGFR in a reaction buffer (50 mM HEPES pH 7.0, 5 mM MgCl2, 1 mM MnCl2, 0.01% BSA, 2 mM TCEP, 0.1 mM NaVO4). […] Enzyme reaction solution (2× concentrations, 5 μL) was added to 384-well plates containing compounds and incubated for 30 mins. Enzyme reactions were initiated with the addition of 5 μL of ATP to a final concentration of 100 μM and reacted for 20 mins.

[2] = biological target: EGFR L858R/T790M (Homo sapiens, UniProt P00533, L858R/T790M); assay: HTRF-based EGFR biochemical assay, L858R/T790M; conditions: 100 μM ATP, enzyme 0.02 nM
Experimental: as §1

Chain of EGFR L858R/T790M (P00533 25-1210 T790M/L858R): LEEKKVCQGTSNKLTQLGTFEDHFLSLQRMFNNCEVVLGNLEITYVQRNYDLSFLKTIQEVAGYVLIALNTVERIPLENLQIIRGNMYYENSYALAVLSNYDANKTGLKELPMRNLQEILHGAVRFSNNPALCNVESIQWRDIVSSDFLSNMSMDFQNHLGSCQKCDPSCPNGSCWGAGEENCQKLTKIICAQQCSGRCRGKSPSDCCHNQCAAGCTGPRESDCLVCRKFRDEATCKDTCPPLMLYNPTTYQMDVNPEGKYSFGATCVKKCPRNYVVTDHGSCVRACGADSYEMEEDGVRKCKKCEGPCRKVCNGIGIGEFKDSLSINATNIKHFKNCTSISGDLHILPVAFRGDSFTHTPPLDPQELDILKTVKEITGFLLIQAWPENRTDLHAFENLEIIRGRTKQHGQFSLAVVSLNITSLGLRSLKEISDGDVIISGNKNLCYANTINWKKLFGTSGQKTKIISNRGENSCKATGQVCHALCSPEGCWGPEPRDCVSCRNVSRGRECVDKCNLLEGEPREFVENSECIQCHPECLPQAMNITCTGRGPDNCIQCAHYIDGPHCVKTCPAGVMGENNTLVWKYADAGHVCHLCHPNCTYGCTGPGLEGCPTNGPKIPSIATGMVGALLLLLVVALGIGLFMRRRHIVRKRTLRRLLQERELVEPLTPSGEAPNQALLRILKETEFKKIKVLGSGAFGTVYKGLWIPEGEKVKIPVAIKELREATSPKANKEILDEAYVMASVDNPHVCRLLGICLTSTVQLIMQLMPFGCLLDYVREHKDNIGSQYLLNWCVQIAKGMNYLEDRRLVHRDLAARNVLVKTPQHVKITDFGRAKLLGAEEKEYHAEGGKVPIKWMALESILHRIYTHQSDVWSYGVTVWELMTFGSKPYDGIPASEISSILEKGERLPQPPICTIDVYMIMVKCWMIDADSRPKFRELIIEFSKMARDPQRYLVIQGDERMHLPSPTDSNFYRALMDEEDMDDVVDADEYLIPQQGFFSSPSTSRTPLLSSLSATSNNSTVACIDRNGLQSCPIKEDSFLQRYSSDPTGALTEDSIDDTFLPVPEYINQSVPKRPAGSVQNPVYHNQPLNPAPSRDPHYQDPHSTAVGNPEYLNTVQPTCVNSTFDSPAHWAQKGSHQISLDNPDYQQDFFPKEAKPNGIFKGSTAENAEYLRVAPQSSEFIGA
Chain of EGFR L858R (P00533 25-1210 L858R): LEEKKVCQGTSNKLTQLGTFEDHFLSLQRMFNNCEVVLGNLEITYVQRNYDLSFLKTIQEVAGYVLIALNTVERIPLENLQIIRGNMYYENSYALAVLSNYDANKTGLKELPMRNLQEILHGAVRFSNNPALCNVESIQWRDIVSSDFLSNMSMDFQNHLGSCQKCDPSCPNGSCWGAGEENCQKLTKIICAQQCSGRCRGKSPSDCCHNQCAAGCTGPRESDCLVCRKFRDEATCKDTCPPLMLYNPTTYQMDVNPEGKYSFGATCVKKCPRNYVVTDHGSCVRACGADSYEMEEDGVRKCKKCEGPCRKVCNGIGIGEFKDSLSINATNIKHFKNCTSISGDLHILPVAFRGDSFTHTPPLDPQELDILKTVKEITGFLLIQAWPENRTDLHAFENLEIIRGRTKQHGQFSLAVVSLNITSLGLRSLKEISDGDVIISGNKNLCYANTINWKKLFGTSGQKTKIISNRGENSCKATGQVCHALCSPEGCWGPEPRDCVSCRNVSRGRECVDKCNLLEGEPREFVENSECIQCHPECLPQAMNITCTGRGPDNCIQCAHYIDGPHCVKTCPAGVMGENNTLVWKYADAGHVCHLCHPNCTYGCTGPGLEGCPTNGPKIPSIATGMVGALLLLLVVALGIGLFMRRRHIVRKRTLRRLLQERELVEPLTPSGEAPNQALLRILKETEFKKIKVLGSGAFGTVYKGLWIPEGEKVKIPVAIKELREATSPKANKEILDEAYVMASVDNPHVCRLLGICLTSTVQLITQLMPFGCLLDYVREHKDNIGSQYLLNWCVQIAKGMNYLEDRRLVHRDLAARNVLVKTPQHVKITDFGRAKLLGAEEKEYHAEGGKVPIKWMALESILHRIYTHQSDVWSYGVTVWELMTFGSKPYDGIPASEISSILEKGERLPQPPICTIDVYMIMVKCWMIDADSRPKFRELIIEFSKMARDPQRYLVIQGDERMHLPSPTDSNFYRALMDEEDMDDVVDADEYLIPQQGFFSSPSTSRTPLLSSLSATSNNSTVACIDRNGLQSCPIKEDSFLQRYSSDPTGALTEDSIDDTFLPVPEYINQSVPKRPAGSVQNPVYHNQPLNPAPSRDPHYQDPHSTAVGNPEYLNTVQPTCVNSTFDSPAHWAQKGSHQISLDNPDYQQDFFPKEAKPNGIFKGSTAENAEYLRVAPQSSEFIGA

SMILES	IC50 [1] [µM]	IC50 [2] [µM]
CSc1nc(-c2cccc3c2CCC3NC(=O)c2cccc3[nH]ccc23)c(-c2ccnc(NC(C)=O)c2)[nH]1 (stereo not shown) [Compound 056, N-(4(5-(2-acetamidopyridin-4-yl)-2-(methylthio)-1H-imidazol-4-yl)-2,3-dihydro-1H-inden-1-yl)-1H-indole-4-carboxamide]	> 100	> 100
COc1cccc(C(=O)Nc2ccccc2-c2nc(SC)[nH]c2-c2ccnc(NC(C)=O)c2)c1 [Compound 025, N-(2-(5-(2-acetamidopyridin-4-yl)-2-(methylthio)-1H-imidazol-4-yl)phenyl)-3-methoxybenzamide]	> 100	> 100
CSc1nc(-c2ccccc2NC(=O)c2ccccc2O)c(-c2ccnc(NC(C)=O)c2)[nH]1 [Compound 032, N-(2-(5-(2-acetamidopyridin-4-yl)-2-(methylthio)-1H-imidazol-4-yl)phenyl)-2-hydroxybenzamide]	> 100	> 100
CSc1nc(-c2cccc(NC(=O)Cc3c(F)cccc3F)c2)c(-c2ccnc(NC(C)=O)c2)[nH]1 [Compound 053, N-(3-(5-(2-acetamidopyridin-4-yl)-2-(methylthio)-1H-Imidazol-4-yl)phenyl)-2-(2,6-difluorophenyl)acetamide]	1.3	0.799
CSc1nc(-c2cccc(NC(=O)C3CC3)c2)c(-c2ccnc(NC(C)=O)c2)[nH]1 [Compound 003, N-(3-(5-(2-acetamidopyridin-4-yl)-2-(methylthio)-1H-imidazol-4-yl)phenyl)cyclopropane-carboxamide]	4.23	14.5
CSc1nc(-c2ccccc2NC(=O)c2cc(C)cs2)c(-c2ccnc(NC(C)=O)c2)[nH]1 [Compound 026, N-(2-(5-(2-acetamidopyridin-4-yl)-2-(methylthio)-1H-imidazol-4-yl)phenyl)-4-methyl-thiophene-2-carboxamide]	> 100	> 100
CSc1nc(-c2cccc(NC(=O)Nc3ccc(Br)cc3)c2)c(-c2ccnc(NC(C)=O)c2)[nH]1 [Compound 015, N-(4-(4-(3-(3-(4-bromophenyl)ureido)phenyl)-2-(methylthio)-1H-imidazol-5-yl)pyridin-2-yl)acetamide]	6.43	5.94
CSc1nc(-c2cc(NC(=O)c3c(F)cccc3F)cs2)c(-c2ccnc(NC(C)=O)c2)[nH]1 [Compound 011, N-(5-(5-(2-acetamidopyridin-4-yl)-2-(methylthio)-1H-imidazol-4-yl)thiophen-3-yl)-2,6-difluorobenzamide]	> 100	> 100
CSc1nc(-c2cccc(NC(=O)CCc3ccccc3)c2)c(-c2ccnc(NC(C)=O)c2)[nH]1 [Compound 037, N-(3-(5-(2-acetamidopyridin-4-yl)-2-(methylthio)-1H-imidazol-4-yl)phenyl)-3-phenylpropanamide]	1.88	7.86
CSc1nc(-c2ccccc2NC(=O)Nc2ccc(Br)cc2)c(-c2ccnc(NC(C)=O)c2)[nH]1 [Compound 019, N-(4-(4-(2(3-(4-bromophenyl)ureido)phenyl)-2-(methylthio)-1H-imidazol-5-yl)pyridin-2-yl)acetamide]	> 100	> 100
CSc1nc(-c2cccc(NC(=O)Nc3ccccc3)c2)c(-c2ccnc(NC(C)=O)c2)[nH]1 [Compound 020, N-(4-(2-(methylthio)-4-(3-(3-phenylureido)phenyl)-1H-imidazol-5-yl)pyridin-2-yl)acetamide]	> 100	> 100
CSc1nc(-c2ccccc2NC(=O)c2ccco2)c(-c2ccnc(NC(C)=O)c2)[nH]1 [Compound 027, N-(2-(5-(2-acetamidopyridin-4-yl)-2-(methylthio)-1H-imidazol-4-yl)phenyl)furan-2-carboxamide]	> 100	> 100
CSc1nc(-c2ccccc2NC(=O)C2CCCC2)c(-c2ccnc(NC(C)=O)c2)[nH]1 [Compound 022, N-(2(5-(2-acetamidopyridin-4-yl)-2-(methylthio)-1H-imidazol-4-yl)phenyl)cyclopentane-carboxamide]	> 100	> 100
CSc1nc(-c2ccccc2NC(=O)c2cccc3[nH]ccc23)c(-c2ccnc(NC(C)=O)c2)[nH]1 [Compound 023, N-(2-(5-(2-acetamidopyridin-4-yl)-2-(methylthio)-1H-imidazol-4-yl)phenyl)-1H-indole-4-carboxamide]	> 100	> 100
CSc1nc(-c2cccc(NC(=O)Nc3cccc(C(F)(F)F)c3)c2)c(-c2ccnc(NC(C)=O)c2)[nH]1 [Compound 016, N-(4(2-(methylthio)-4-(3-(3-(3-(trifluoromethyl)phenyl)ureido)phenyl)-1H-imidazol-5-yl)pyridin-2-yl)acetamide]	0.512	0.857
CSc1nc(-c2cccc3c2CCC3NC(=O)c2c(F)cccc2F)c(-c2ccnc(NC(C)=O)c2)[nH]1 (stereo not shown) [Compound 055, N-(4-(5-(2-acetamidopyridin-4-yl)-2-(methylthio)-1H-imidazol-4-yl)-2,3-dihydro-1H-inden-1-yl)-2,6-difluorobenzamide]	> 100	> 100
CSc1nc(-c2ccccc2NC(=O)CCc2ccccc2)c(-c2ccnc(NC(C)=O)c2)[nH]1 [Compound 033, N-(2(5-(2-acetamidopyridin-4-yl)-2-(methylthio)-1H-Imidazol-4-yl)phenyl)-3-phenylpropanamide]	> 100	> 100
CSc1nc(-c2cccc(NC(=O)Nc3ccc(F)c(Cl)c3)c2)c(-c2ccnc(NC(C)=O)c2)[nH]1 [Compound 018]	1.6	2.2
CSc1nc(-c2cccc(NC(=O)C3CCCC3)c2)c(-c2ccnc(NC(C)=O)c2)[nH]1 [Compound 001, N-(3-(5-(2-acetamidopyridin-4-yl)-2-(methylthio)-1H-imidazol-4-yl)phenyl)cyclopentane-carboxamide]	4.2	16.7
CSc1nc(-c2ccc(F)c(NC(=O)Cc3c(F)cccc3F)c2)c(-c2ccnc(NC(C)=O)c2)[nH]1 [Compound 052, N-(5-(5-(2-acetamidopyridin-4-yl)-2-(methylthio)-1H-Imidazol-4-yl)-2-fluorophenyl)-2-(2,6-difluorophenyl)acetamide]	0.969	1.89
CSc1nc(-c2cc(NC(=O)Cc3ccccc3)cs2)c(-c2ccnc(NC(C)=O)c2)[nH]1 [Compound 012, N-(5-(5-(2-acetamidopyridin-4-yl)-2-(methylthio)-1H-imidazol-4-yl)thiophen-3-yl)-2-phenylacetamide]	> 100	> 100
CSc1nc(-c2cccc(NC(=O)Nc3ccccc3)c2)c(-c2ccnc(NC(C)=O)c2)[nH]1 [Compound 005, N-(4-(2-(methylthio)-4-(3-(3-phenylureido)phenyl)-1H-imidazol-5-yl)pyridin-2-yl)acetamide]	3.6	3.71
CSc1nc(-c2cccc(NC(=O)Nc3ccc(F)cc3)c2)c(-c2ccnc(NC(C)=O)c2)[nH]1 [Compound 017, N-(4-(4-(3-(3-(4-fluorophenyl)ureido)phenyl)-2-(methylthio)-1H-imidazol-5-yl)pyridin-2-yl)acetamide]	4.13	5.3
